Measurements taken from PubChem BioAssay (NCI).
Values joined by “and” are separate entries in the source; they are usually repeats but may differ in a detail not shown here. Equal entries are not always repeated.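 A five-concentration, 48-hour dose response in 96-well plates underlies each endpoint, interpolated linearly between surrounding concentrations. At the GI50, growth is halved. At the TGI there is no net growth.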

Assays:
Assay in all cases: NCI-60 cell line screen, 48 h
[1] = system: 786-0 renal
[2] = system: A498 renal
[3] = system: A549 NSCLC
[4] = system: ACHN renal
[5] = system: BT-549 breast
[6] = system: CAKI-1 renal
[7] = system: CCRF-CEM leukemia
[8] = system: COLO 205 colon
[9] = system: DU-145 prostate
[10] = system: EKVX NSCLC
[11] = system: HCC-2998 colon
[12] = system: HCT-116 colon
[13] = system: HCT-15 colon
[14] = system: HL-60(TB) leukemia
[15] = system: HOP-62 NSCLC
[16] = system: HOP-92 NSCLC
[17] = system: HS 578T breast
[18] = system: HT29 colon
[19] = system: IGROV1 ovarian
[20] = system: K-562 leukemia
[21] = system: KM12 colon
[22] = system: LOX IMVI melanoma
[23] = system: M14 melanoma
[24] = system: MALME-3M melanoma
[25] = system: MCF7 breast
[26] = system: MDA-MB-231 breast
[27] = system: MDA-MB-435
[28] = system: MOLT-4 leukemia
[29] = system: NCI-H226 lung
[30] = system: NCI-H23 lung
[31] = system: NCI-H460 lung
[32] = system: NCI-H522 lung
[33] = system: NCI/ADR-RES ovarian
[34] = system: OVCAR-3 ovarian
[35] = system: OVCAR-4 ovarian
[36] = system: OVCAR-5 ovarian
[37] = system: OVCAR-8 ovarian
[38] = system: PC-3 prostate
[39] = system: RPMI-8226 leukemia
[40] = system: RXF 393 renal
[41] = system: SF-268 CNS
[42] = system: SF-295 CNS
[43] = system: SF-539 CNS
[44] = system: SK-MEL-2 melanoma
[45] = system: SK-MEL-28 melanoma
[46] = system: SK-MEL-5 melanoma
[47] = system: SK-OV-3 ovarian
[48] = system: SN12C renal
[49] = system: SNB-19 CNS
[50] = system: SNB-75 CNS
[51] = system: SR leukemia
[52] = system: SW-620 colon
[53] = system: T-47D breast
[54] = system: TK-10 renal
[55] = system: U251 CNS
[56] = system: UACC-257 melanoma
[57] = system: UACC-62 melanoma
[58] = system: UO-31 renal

## CC(C)C[C@@H](NC(=O)[C@@H](Cc1ccccc1)NC(=O)c1cnccn1)B1Oc2ccc(C[C@H](NC(=O)[C@H](Cc3ccc4c(c3)OB([C@@H](CC(C)C)NC(=O)[C@@H](Cc3ccccc3)NC(=O)c3cnccn3)O4)NC(=O)[C@@H](N)CC3CCC4OB([C@@H](CC(C)C)NC(=O)[C@@H](CC5CCCCC5)NC(=O)C5CNCCN5)OC4C3)C(=O)NCCCC[C@@H]3NC(=O)[C@@H](Cc4ccccc4)NC(=O)[C@H](CC(=O)O)NC(=O)CNC(=O)[C@H](CCCNC(=N)N)NC3=O)cc2O1 (stereo partly specified)
[1]
  GI50: 3.68 nM and 2.5 nM
[2]
  GI50: 3.36 nM and 2.5 nM
  TGI: 10.7 nM and 5.35 nM
[3]
  GI50: 7.23 nM and 8.38 nM
  TGI: 321 nM
[4]
  GI50: 3.95 nM and 2.5 nM
  TGI: 257 nM and 283 nM
[5]
  GI50: 2.58 nM and 2.5 nM
  TGI: 8.12 nM and 3.01 nM
[6]
  GI50: 3.55 nM and 7.13 nM
  TGI: 22.2 nM and 38.3 nM
[7]
  GI50: 3.82 nM and 2.5 nM
  TGI: > 25000 nM
[8]
  GI50: 5.51 nM and 5.55 nM
  TGI: 293 nM and 86.4 nM
[9]
  GI50: 5.74 nM and 2.5 nM
  TGI: 2980 nM
[10]
  GI50: 10.6 nM and 7.75 nM
  TGI: 527 nM and 304 nM
[11]
  GI50: 6.49 nM and 3.89 nM
  TGI: 19.8 nM and 7.63 nM
[12]
  GI50: 2.73 nM and 2.5 nM
  TGI: 16.4 nM and 2.9 nM
[13]
  GI50: 4.85 nM and 3.49 nM
  TGI: 41 nM and 40.9 nM
[14]
  GI50: 4.42 nM
  TGI: 853 nM
[15]
  GI50: 7.45 nM and 6.55 nM
  TGI: 46.3 nM and 17.7 nM
[16]
  GI50: 3.69 nM and 2.5 nM
  TGI: 26.7 nM and 9.53 nM
[17]
  GI50: 4.19 nM and 2.5 nM
  TGI: > 25000 nM
[18]
  GI50: 3.73 nM and 2.5 nM
[19]
  GI50: 21.7 nM and 2.5 nM
  TGI: 250 nM and 917 nM
[20]
  GI50: 0.713 nM and 2.5 nM
  TGI: > 25000 nM
[21]
  GI50: 3.94 nM and 2.95 nM
  TGI: 15.2 nM and 8.16 nM
[22]
  GI50: 2.41 nM and < 2.5 nM
  TGI: 6.6 nM and < 2.5 nM
[23]
  GI50: 3.22 nM and 2.5 nM
[24]
  GI50: 3.23 nM and 2.5 nM
  TGI: 105 nM and 20.6 nM
[25]
  GI50: 3.78 nM and 2.5 nM
  TGI: 439 nM
[26]
  GI50: 7.73 nM and 2.5 nM
  TGI: 56 nM and 20.5 nM
[27]
  GI50: 2.06 nM and < 2.5 nM
  TGI: 4.52 nM and < 2.5 nM
[28]
  GI50: 3.56 nM and 2.5 nM
  TGI: > 25000 nM
[29]
  GI50: 2.29 nM
  TGI: 4.54 nM
[30]
  GI50: 5.68 nM and 2.5 nM
  TGI: 41.2 nM and 10.8 nM
[31]
  GI50: 25.3 nM and 7.96 nM
  TGI: 115 nM and 32.2 nM
[32]
  GI50: 3.33 nM and 2.5 nM
  TGI: 17.9 nM and 3.85 nM
[33]
  GI50: 54.8 nM and 17.4 nM
  TGI: 669 nM and 148 nM
[34]
  GI50: 2.53 nM and 2.5 nM
  TGI: 6.73 nM and 3.27 nM
[35]
  GI50: 5.05 nM and 2.5 nM
  TGI: 181 nM and 548 nM
[36]
  GI50: 7.84 nM and 3.82 nM
  TGI: 132 nM and 360 nM
[37]
  GI50: 22 nM and 8.17 nM
[38]
  GI50: 13.5 nM and 6.32 nM
  TGI: 186 nM and 60.4 nM
[39]
  GI50: 4.32 nM and 2.5 nM
  TGI: 243 nM and 109 nM
[40]
  GI50: 2.44 nM and < 2.5 nM
  TGI: 5.8 nM and < 2.5 nM
[41]
  GI50: 4.1 nM and 2.8 nM
  TGI: 27.9 nM and 13.6 nM
[42]
  GI50: 3.65 nM and 2.5 nM
  TGI: 17.2 nM and 7.68 nM
[43]
  GI50: 2.51 nM and < 2.5 nM
  TGI: 7.22 nM and < 2.5 nM
[44]
  GI50: 5.45 nM and 2.5 nM
  TGI: 64.9 nM and 9.2 nM
[45]
  GI50: 5.63 nM and 2.5 nM
  TGI: 517 nM and 106 nM
[46]
  GI50: 3.01 nM and 2.5 nM
  TGI: 8.71 nM and 4.81 nM
[47]
  GI50: 30.9 nM and 7.54 nM
  TGI: 694 nM
[48]
  GI50: 7.93 nM and 4.85 nM
  TGI: 80.4 nM and 31.9 nM
[49]
  GI50: 13.6 nM and 2.5 nM
  TGI: 4700 nM
[50]
  GI50: 3.92 nM
  TGI: 24.8 nM
[51]
  GI50: 4.1 nM
  TGI: 244 nM
[52]
  GI50: 4.26 nM and 2.5 nM
  TGI: 115 nM and 261 nM
[53]
  GI50: 3.88 nM and 2.5 nM
  TGI: 41.1 nM and 11.7 nM
[54]
  GI50: 3.19 nM and 2.5 nM
[55]
  GI50: 11.7 nM and 4.76 nM
  TGI: 149 nM and 21 nM
[56]
  GI50: 4.33 nM and 3.35 nM
  TGI: 49.6 nM and 15.6 nM
[57]
  GI50: 4.12 nM and 2.5 nM
[58]
  GI50: 4.28 nM and 2.5 nM
  TGI: 102 nM and 14.8 nM

## O=S(=O)(Nc1ccc(Cl)c(F)c1)c1ccc(-c2cnc(C3CC3)o2)cc1
[1]
  GI50: 535 nM
  TGI: 16200 nM
[2]
  GI50: 232 nM
  TGI: 922 nM
[3]
  GI50: 825 nM
  TGI: 14700 nM
[4]
  GI50: 622 nM
  TGI: 15800 nM
[5]
  GI50: 515 nM
  TGI: 15400 nM
[6]
  GI50: 360 nM
  TGI: 15200 nM
[7]
  GI50: 382 nM
  TGI: 21500 nM
[8]
  GI50: 651 nM
  TGI: 9700 nM
[9]
  GI50: 1650 nM
  TGI: 14700 nM
[10]
  GI50: 1050 nM
  TGI: 14800 nM
[11]
  GI50: 1720 nM
  TGI: 12300 nM
[12]
  GI50: 382 nM
  TGI: 12700 nM
[13]
  GI50: 332 nM
  TGI: 12600 nM
[14]
  GI50: 313 nM
  TGI: 3800 nM
[15]
  GI50: 579 nM
  TGI: 17600 nM
[16]
  GI50: 734 nM
  TGI: 6610 nM
[17]
  GI50: 355 nM
  TGI: 8560 nM
[18]
  GI50: 339 nM
  TGI: 5270 nM
[19]
  GI50: 556 nM
  TGI: 15200 nM
[20]
  GI50: 210 nM
  TGI: > 65300 nM
[21]
  GI50: 379 nM
  TGI: 13300 nM
[22]
  GI50: 503 nM
  TGI: 19100 nM
[23]
  GI50: 328 nM
  TGI: 12900 nM
[24]
  GI50: 821 nM
  TGI: 23400 nM
[25]
  GI50: 284 nM
  TGI: 13400 nM
[26]
  GI50: 1060 nM
  TGI: 11500 nM
[27]
  GI50: 85.3 nM
  TGI: 484 nM
[28]
  GI50: 614 nM
  TGI: 25000 nM
[29]
  GI50: 1250 nM
  TGI: 16500 nM
[30]
  GI50: 1190 nM
  TGI: 13500 nM
[31]
  GI50: 413 nM
  TGI: 11600 nM
[32]
  GI50: 192 nM
  TGI: 4420 nM
[33]
  GI50: 369 nM
  TGI: 7560 nM
[34]
  GI50: 357 nM
  TGI: 3480 nM
[35]
  GI50: 1820 nM
  TGI: 16200 nM
[36]
  GI50: 1610 nM
  TGI: 14500 nM
[37]
  GI50: 1090 nM
  TGI: 19800 nM
[38]
  GI50: 516 nM
  TGI: 13900 nM
[39]
  GI50: 531 nM
  TGI: > 53400 nM
[40]
  GI50: 282 nM
  TGI: 2750 nM
[41]
  GI50: 1030 nM
  TGI: 20100 nM
[42]
  GI50: 324 nM
  TGI: 2990 nM
[43]
  GI50: 354 nM
  TGI: 2780 nM
[44]
  GI50: 603 nM
  TGI: 18900 nM
[45]
  GI50: 1580 nM
  TGI: 17400 nM
[46]
  GI50: 511 nM
  TGI: 11100 nM
[47]
  GI50: 887 nM
  TGI: 18300 nM
[48]
  GI50: 808 nM
  TGI: 14400 nM
[49]
  GI50: 477 nM
  TGI: 14800 nM
[50]
  GI50: 172 nM
  TGI: 692 nM
[51]
  GI50: 253 nM
  TGI: > 43000 nM
[52]
  GI50: 374 nM
  TGI: 15000 nM
[53]
  GI50: 436 nM
  TGI: 15600 nM
[54]
  GI50: 1550 nM
  TGI: 12700 nM
[55]
  GI50: 448 nM
  TGI: 14400 nM
[56]
  GI50: 1350 nM
  TGI: 18200 nM
[57]
  GI50: 281 nM
  TGI: 8000 nM
[58]
  GI50: 855 nM
  TGI: 11900 nM
